Structures are written as SMILES.

Holding throughout (parameters): scale not given: the % may be the effect or the level left
Assay [1] deals with Receptor-interacting serine/threonine-protein kinase 3 (Homo sapiens) (UniProt Q9Y572). The assay is described as follows: Inhibition of human RIPK3 assessed as enzyme activity at 1 uM using myelin basic protein as substrate preincubated for 20 mins followed by [gamma-33P]-ATP addition and measured after 120 mins by radiometric Hot-SpotSM Kinase assay relative to control.
Receptor-interacting serine/threonine-protein kinase 3 (Homo sapiens), sequence (Q9Y572 whole entry, looked up): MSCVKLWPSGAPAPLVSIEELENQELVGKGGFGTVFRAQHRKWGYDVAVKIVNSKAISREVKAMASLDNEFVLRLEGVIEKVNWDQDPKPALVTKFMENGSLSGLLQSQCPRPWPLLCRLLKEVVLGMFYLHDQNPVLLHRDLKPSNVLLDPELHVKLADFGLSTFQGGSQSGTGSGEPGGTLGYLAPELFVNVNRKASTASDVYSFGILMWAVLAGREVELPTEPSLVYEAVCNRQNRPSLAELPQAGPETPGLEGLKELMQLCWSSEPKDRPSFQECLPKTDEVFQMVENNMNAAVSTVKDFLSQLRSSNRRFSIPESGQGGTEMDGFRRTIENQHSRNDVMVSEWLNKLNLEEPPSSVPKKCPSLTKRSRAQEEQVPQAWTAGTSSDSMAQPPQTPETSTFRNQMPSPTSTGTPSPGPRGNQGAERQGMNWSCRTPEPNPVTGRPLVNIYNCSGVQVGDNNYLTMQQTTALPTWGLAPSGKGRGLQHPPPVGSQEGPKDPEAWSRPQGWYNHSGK
The target of assay [2] is T1, Mitogen-activated protein kinase kinase kinase 19 (Homo sapiens) (UniProt Q56UN5).
T1 sequence (whole entry): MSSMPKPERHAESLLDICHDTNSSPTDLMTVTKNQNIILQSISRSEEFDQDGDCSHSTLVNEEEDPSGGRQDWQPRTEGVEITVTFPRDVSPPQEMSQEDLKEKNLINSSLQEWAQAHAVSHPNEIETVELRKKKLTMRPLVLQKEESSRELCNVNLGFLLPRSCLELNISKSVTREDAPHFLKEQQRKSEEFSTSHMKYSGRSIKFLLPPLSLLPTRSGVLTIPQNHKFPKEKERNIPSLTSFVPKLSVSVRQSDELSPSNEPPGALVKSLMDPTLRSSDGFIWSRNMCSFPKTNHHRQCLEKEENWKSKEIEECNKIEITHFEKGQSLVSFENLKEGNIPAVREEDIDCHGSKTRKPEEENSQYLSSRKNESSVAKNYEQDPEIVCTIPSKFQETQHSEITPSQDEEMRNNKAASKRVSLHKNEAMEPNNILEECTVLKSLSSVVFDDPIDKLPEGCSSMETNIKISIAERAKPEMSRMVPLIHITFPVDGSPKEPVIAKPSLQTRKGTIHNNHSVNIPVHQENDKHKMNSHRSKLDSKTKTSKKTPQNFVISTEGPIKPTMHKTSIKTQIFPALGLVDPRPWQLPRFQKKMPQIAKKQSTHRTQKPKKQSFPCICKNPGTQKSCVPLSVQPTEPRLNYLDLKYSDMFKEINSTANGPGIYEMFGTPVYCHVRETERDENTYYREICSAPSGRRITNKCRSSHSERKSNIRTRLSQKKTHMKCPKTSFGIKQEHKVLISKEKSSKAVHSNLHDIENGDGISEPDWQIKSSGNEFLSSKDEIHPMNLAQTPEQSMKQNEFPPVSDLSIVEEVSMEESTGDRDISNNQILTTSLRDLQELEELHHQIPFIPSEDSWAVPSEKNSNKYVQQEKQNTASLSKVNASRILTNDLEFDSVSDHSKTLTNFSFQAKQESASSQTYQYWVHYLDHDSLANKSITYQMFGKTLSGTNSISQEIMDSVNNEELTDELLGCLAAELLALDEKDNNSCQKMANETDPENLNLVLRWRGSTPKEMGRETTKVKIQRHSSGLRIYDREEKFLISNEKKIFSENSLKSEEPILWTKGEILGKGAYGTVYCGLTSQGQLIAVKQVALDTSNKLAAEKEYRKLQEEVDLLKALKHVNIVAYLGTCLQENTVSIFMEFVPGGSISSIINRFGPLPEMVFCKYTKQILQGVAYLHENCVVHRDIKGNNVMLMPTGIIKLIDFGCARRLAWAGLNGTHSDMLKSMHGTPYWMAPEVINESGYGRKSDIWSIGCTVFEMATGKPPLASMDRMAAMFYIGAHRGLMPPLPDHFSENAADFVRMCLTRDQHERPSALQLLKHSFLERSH
The assay is described as follows: Inhibition of human YSK4/MAP3K19 assessed as enzyme activity at 1 uM using myelin basic protein as substrate preincubated for 20 mins followed by [gamma-33P]-ATP addition and measured after 120 mins by radiometric Hot-SpotSM Kinase assay relative to control.

The target of assay [3] is Fibroblast growth factor receptor 1 (Homo sapiens) (UniProt P11362). In words: Inhibition of human FGFR1 assessed as enzyme activity at 1 uM using poly[Glu:Tyr] (4:1) as substrate preincubated for 20 mins followed by [gamma-33P]-ATP addition and measured after 120 mins by radiometric Hot-SpotSM Kinase assay relative to control.
Fibroblast growth factor receptor 1 (Homo sapiens), sequence (P11362 22-822 limits assumed): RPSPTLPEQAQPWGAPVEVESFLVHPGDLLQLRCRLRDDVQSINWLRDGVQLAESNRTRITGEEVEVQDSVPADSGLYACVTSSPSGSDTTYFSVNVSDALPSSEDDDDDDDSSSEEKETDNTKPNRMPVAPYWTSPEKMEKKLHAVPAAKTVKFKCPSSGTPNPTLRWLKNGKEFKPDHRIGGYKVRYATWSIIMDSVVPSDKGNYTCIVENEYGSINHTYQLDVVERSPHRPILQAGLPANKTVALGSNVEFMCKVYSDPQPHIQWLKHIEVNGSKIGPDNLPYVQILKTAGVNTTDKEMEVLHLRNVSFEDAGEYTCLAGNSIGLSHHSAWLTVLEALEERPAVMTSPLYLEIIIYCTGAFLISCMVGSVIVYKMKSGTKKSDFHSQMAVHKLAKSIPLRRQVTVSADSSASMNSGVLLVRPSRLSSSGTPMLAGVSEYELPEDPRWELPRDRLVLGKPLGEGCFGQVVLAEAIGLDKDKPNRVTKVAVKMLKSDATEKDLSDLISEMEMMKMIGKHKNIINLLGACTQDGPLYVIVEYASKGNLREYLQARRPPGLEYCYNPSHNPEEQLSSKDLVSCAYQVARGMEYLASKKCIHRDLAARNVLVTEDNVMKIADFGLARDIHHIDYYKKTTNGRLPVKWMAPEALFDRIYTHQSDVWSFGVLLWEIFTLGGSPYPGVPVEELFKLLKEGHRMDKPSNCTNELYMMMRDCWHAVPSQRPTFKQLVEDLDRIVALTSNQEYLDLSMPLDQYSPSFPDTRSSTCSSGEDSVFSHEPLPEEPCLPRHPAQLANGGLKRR
In assay [4] the target is T2, Rhodopsin kinase GRK1 (Homo sapiens) (UniProt Q15835).
T2 sequence (whole entry): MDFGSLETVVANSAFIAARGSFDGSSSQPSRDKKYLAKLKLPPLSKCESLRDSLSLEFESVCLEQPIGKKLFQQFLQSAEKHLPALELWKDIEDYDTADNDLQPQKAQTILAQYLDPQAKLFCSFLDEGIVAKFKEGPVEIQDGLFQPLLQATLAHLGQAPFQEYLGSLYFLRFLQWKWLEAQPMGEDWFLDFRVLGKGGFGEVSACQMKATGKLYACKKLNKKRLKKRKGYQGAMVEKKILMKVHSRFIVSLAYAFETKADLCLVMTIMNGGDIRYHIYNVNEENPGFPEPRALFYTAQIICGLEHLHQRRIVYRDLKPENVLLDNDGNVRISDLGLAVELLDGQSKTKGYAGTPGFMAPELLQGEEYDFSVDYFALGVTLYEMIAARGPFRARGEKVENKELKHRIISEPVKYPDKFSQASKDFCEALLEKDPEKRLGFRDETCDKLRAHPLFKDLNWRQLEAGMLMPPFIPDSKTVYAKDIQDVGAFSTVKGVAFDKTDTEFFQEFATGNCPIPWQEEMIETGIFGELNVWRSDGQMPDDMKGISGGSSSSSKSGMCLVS
The assay is described as follows: Inhibition of human GRK1 assessed as enzyme activity at 1 uM using casein as substrate preincubated for 20 mins followed by [gamma-33P]-ATP addition and measured after 120 mins by radiometric Hot-SpotSM Kinase assay relative to control.

The target in assay [5] is Calcium/calmodulin-dependent protein kinase type II subunit delta (Homo sapiens) (UniProt Q13557). The assay is described as follows: Inhibition of human CAMK2d assessed as enzyme activity at 1 uM using KKLNRTLSFAEPG as substrate preincubated for 20 mins followed by [gamma-33P]-ATP addition and measured after 120 mins by radiometric Hot-SpotSM Kinase assay relative to control.
Calcium/calmodulin-dependent protein kinase type II subunit delta (Homo sapiens), sequence (Q13557 whole entry): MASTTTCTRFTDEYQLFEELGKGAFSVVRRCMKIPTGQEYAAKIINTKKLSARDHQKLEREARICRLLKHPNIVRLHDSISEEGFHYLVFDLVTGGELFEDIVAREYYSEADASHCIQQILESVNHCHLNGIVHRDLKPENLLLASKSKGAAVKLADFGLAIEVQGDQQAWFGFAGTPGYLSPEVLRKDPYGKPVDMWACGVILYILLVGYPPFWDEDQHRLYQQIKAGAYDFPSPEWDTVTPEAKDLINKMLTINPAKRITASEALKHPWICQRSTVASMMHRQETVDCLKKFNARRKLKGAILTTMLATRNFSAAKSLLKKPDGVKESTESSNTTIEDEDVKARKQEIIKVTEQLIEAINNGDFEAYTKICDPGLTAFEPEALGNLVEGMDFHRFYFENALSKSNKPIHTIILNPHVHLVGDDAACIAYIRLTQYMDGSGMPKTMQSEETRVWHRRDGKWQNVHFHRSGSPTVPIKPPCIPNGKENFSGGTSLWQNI

For the compound `C[C@H](Nc1ncnc2nc[nH]c12)c1cc2cccc(Cl)c2c(=O)n1-c1ccccc1`, the Activity in assay [1] was found to be 97.6%; in assay [2], 91.6%; in assay [3], 95.7%; in assay [4], 102%; in assay [5], 104%.

As to `CC[C@H](Nc1ncnc2[nH]cnc12)c1nc2cccc(F)c2c(=O)n1-c1ccccc1`, the Activity in assay [1] came to 102%; in assay [2], 90.5%; in assay [3], 98%; in assay [4], 104%; in assay [5] it was 107%.

With `CC(C)Oc1ccc(-c2nn([C@@H](C)c3oc4ccc(F)cc4c(=O)c3-c3cccc(F)c3)c3ncnc(N)c23)cc1F` [UMBRALISIB], the Activity in assay [1] came to 107%; in assay [2] it was 92.4%; in assay [3], 99.5%; in assay [4] it was 98.7%; in assay [5], 103%.

The values above are taken from ChEMBL document CHEMBL5715954, “Silencing c-Myc translation as a therapeutic strategy through targeting PI3Kδ and CK1ε in hematological malignancies” (Blood, 2017).
